In brackets after ≈: the same amount, converted by molar mass. Activity calls are given as the source filed them. No cut-off for these calls is given here.
Key:
[1] = test system: Mycobacterium tuberculosis variant bovis; assay: Antitubercular activity against Mycobacterium bovis BCG incubated for 5 days by rezasurin dye based assay; assay type: functional; settings: 120 h, time 5 day
[2] = test system: Mycobacterium tuberculosis variant bovis; assay: Antimycobacterial activity against Mycobacterium bovis BCG infected in human THP-1 cells derived macrophages assessed as reduction in intracellular bacterial survival at 20 ug/ml incubated for 24 hrs relative to control; assay type: functional; settings: dose 20 µg/ml
[3] = test system: Mycobacterium tuberculosis variant bovis; assay: Antitubercular activity against Mycobacterium bovis BCG infected in BALB/c mouse assessed as decrease in bacterial count in lungs at 2.5 to 5 mg/kg, iv administered once a day for 2 weeks; assay type: functional, organism-based; settings: dose 2.5-5 mg/kg
[4] = test system: Mycobacterium tuberculosis variant bovis; assay: Antitubercular activity against Mycobacterium bovis BCG infected in BALB/c mouse assessed as bacterial survival in spleen at 5 mg/kg, iv administered once a day for 2 weeks measured on day 15 relative to control; assay type: functional; settings: 336 h
[5] = test system: Mycobacterium tuberculosis variant bovis; assay: Antimycobacterial activity against Mycobacterium bovis BCG infected in human THP-1 cells derived macrophages assessed as reduction in intracellular bacterial survival at 10 ug/ml incubated for 24 hrs relative to control; assay type: functional; settings: dose 10 µg/ml
[6] = test system: Mycobacterium tuberculosis variant bovis; assay: Antitubercular activity against Mycobacterium bovis BCG infected in BALB/c mouse assessed as decrease in bacterial count in spleen at 2.5 to 5 mg/kg, iv administered once a day for 2 weeks; assay type: functional, organism-based; settings: dose 2.5-5 mg/kg
[7] = test system: Mycobacterium tuberculosis variant bovis; assay: Antitubercular activity against Mycobacterium bovis BCG infected in BALB/c mouse assessed as bacterial survival in lungs at 5 mg/kg, iv administered once a day for 2 weeks measured on day 15 relative to control; assay type: functional; settings: 336 h

Molecule `CO[C@H]1/C=C/O[C@@]2(C)Oc3c(C)c(O)c4c(O)c(c(/C=N/N5CCN(C)CC5)c(O)c4c3C2=O)NC(=O)/C(C)=C\C=C\[C@H](C)[C@H](O)[C@@H](C)[C@@H](O)[C@@H](C)[C@H](OC(C)=O)[C@@H]1C` [RIFAMPIN] has an MIC [1] of 0.25 µM (≈ 0.206 µg/mL).
With H-GRLVGRLVGRLVGRLV-OH the Activity [2] was 20%, the Activity [3] was “Active” and the survival at 5 mg/kg [4] was ~10%. The Activity [5] was 35%, the Activity [6] was “Active” and the survival at 5 mg/kg [7] was ~10%. It also gave an MIC [1] of 2.5 µM.
H-VLGRVLGRVLGRVLGR-OH was tested, and the Activity [2] was 10%, the Activity [3] was “Active” and the survival at 5 mg/kg [4] was ~10%. The Activity [5] was 25%, the Activity [6] was “Active” and the survival at 5 mg/kg [7] was ~10%. For the same molecule, the MIC [1] was 2.5 µM.
H-KVLGKVLGKVLGKVLG-OH was tested, and the MIC [1] was > 10 µM.
Molecule H-RLRLRLRLRL-OH has an MIC [1] of 10 µM.
With H-RLVRLVRLVRLVRLV-OH the MIC [1] was > 10 µM.
H-KVLKVLKVLKVL-OH was tested, and the MIC [1] was > 10 µM.
In the case of H-RLVRLVRLVRLV-OH, the MIC [1] is reported as 5 µM.
In the case of H-GRLGRLGRLGRLGRL-OH, the MIC [1] is reported as 5 µM.
Molecule H-LGRLLGRLLGRL-OH has an MIC [1] of 5 µM.

From ChEMBL document CHEMBL6087460, “Generating a Peptide Library Using the Repeats of Amino Acid Scaffolds Created by Sliding the Framework of a 7-mer Human Chemerin Segment and Discovery of Potent Antibacterial and Antimycobacterial Peptides” (J Med Chem, 2025)
